Data on five compounds can be found in paper PMC11267547, “Advancing drug discovery through assay development: a survey of tool compounds within the human solute carrier superfamily” (Frontiers in Pharmacology, 2024).

Structures are written as SMILES.

One experiment addresses SLC2A9 (Homo sapiens, UniProt Q9NRM0). Kind of experiment: Membrane potential dye-based assay, HEK293 cells stably expressing isoform-1 or -2 of SLC2A9 vs mock. To be noted: SLC2A9 isoform-1 or -2 cells compared with non-transduced (mock) cells. It is filed as cell-based. How it is done: FLIPR Membrane Potential Blue Dye was used to detect the compound activities for those membrane transporters that are electrogenic or whose activity is associated with changes in membrane potential, as previously described ([Jensen and BräunerOsborne, 2004]). In brief, cells are seeded at cell line-specific density in black clear-bottom poly-D-Lysine-coated 384-well plates (Greiner Bio-One) in DMEM high-glucose medium with 10% FBS, 1% P/S, and 2 mM UltraGlutamine I (25 µL/well). Furthermore, 24 h after seeding, the culture medium is removed, and the cells are loaded with 20 µL/well of 0.5 X FMP Blue Dye in assay buffer (modified Tyrode’s buffer, 130 mM NaCl, 5 mM KCl, 1 mM MgCl2, 2 mM CaCl2, 5 mM NaHCO3, and 20 mM HEPES pH 7.4). The plates are subsequently incubated for at least 30 min at room temperature in the dark. Then, 10 µL/well of test compounds and controls is added at defined concentrations (0.5% DMSO final conc.) in the FLIPR TETRA instrument (Molecular Devices), and emitted fluorescence is recorded using a λexc 510–545-nm/λem 565–625-nm filter. The dose–response curves for the 19 compounds were prepared starting from 3 µM (final top concentration), the half-log serial dilution factor. For data analysis, Genedata Screener 19.0 software was used.

Another experiment has as its system SLC28A2 (CNT2). Nature of the experiment: Impedance-based TRACT assay, HEK293–JumpIn–SLC28A2 cells, adenosine response. In kind it is cell-based, human. Conditions: 31.6 µM pretreatment, non-induced (-dox) cells.
The target in the next experiment is T1, ENT1 (SLC29A1) (Homo sapiens, UniProt Q99808).
T1 construct: from tissue; host or cells: human erythrocyte membranes
T1 sequence (Q99808 whole entry): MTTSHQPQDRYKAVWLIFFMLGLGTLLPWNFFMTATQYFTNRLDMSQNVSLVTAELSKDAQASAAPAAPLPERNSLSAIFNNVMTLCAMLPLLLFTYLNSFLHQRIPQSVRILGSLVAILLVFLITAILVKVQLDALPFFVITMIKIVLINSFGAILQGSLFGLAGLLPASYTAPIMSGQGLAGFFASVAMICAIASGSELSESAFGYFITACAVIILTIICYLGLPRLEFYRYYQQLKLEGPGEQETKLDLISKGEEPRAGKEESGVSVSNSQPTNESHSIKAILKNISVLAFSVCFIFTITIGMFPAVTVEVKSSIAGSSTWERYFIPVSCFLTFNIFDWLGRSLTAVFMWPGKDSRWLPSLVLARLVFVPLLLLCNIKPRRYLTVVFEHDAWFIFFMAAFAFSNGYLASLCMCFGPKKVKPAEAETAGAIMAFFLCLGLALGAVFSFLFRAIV
Nature of the experiment: Displacement assay with [3H]NBTI on human erythrocyte membranes. In kind it is binding. To be noted: [3H]NBTI displacement on erythrocyte membranes and TRACT assay (Figure 1E, Supplementary Figure S1). As for the experimental part: Displacement assay with [3H]NBTI on human erythrocyte membranes expressing ENT1 (SLC29A1) was performed at 25°C, as described previously ([Vlachodimou et al., 2020]).

In another experiment the target is T2, SLC1A5 (Homo sapiens, UniProt Q15758).
T2 construct: host or cells: HEK293 expressing AspSnFR, transiently transfected with gpASNase1
T2 sequence (Q15758 whole entry): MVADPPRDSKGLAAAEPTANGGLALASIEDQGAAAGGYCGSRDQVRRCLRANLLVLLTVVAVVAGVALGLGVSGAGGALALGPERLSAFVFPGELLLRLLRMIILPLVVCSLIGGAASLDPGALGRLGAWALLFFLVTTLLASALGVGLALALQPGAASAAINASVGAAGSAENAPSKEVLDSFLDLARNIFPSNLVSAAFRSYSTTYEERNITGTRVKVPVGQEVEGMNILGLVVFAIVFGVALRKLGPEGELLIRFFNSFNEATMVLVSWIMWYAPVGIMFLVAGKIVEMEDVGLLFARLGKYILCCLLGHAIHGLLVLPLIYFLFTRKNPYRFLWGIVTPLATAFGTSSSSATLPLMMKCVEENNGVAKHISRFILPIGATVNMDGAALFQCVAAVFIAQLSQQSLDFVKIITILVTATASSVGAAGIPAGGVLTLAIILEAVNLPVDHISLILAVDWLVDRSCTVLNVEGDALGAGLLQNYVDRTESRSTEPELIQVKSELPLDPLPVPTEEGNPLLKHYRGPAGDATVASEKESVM
Nature of the experiment: AspSnFR biosensor assay, asparagine uptake in HEK293 cells. It is filed as cell-based. To be noted: cells pretreated with 50 µM. As for the experimental part: HEK293 cells expressing AspSnFR were transiently transfected with EBPF-gpASNase1, trypsinized, and resuspended in 10% dialyzed FCS/PBS. Post-treatment with test compounds or vehicle, varying concentrations of asparagine were added. After a 30-min incubation at room temperature, flow cytometry analysis was performed using the BD LSR Fortessa X-20, following the protocol previously described ([Hellweg et al., 2024]).

The subject of the next experiment is all SLCs. Nature of the experiment: Selectivity entropy score against all SLCs (S_SLCs). Further details: species or system human. To be noted: selectivity entropy score for all activity values against SLCs. As for the experimental part: (§1) To assess the selectivity, a selectivity entropy score ([Uitdehaag and Zaman, 2011]) was implemented in KNIME. The entropy score was calculated twice for each compound, first against all SLCs (S_SLCs) and then against all proteins (S_other). Ideally, a low entropy value indicates a high selectivity of the inhibitor. However, as the inhibitors were not tested on a full panel of targets, but often only against one to three proteins, a low entropy value might not reflect its true selectivity. Therefore, Pareto ranking was performed using the corresponding node from the Erlwood KNIME open-source cheminformatics KNIME community extension. This ranking minimizes S_SLCs and S_other while maximizing the activity value and the count of SLCs the inhibitor was tested on.

In experiment [1] the test system is all proteins (SLCs and non-SLCs). Kind of experiment: Selectivity entropy score against all proteins (S_other). Further details: species or system human. As for the experimental part: as §1
The test system of another experiment is MPC2. Further details: method as in GtoPdb 3023, PubMed 35278701. To be noted: negative logarithm of the Molar value of IC50, Ki, EC50, and Kd values; ref GtoPdb 3023, PubMed 35278701; cited from earlier work.
The subject of the next experiment is PDE5A. Further details: method as in ChEMBL. Conditions: negative logarithm of the Molar value; ref ChEMBL; cited from earlier work.
The next experiment concerns GPR35. More on the design: method as in ChEMBL. Conditions: negative logarithm of the Molar value; ref ChEMBL; cited from earlier work.
For a further experiment, the system named is PDE1C. Further details: method as in ChEMBL. Conditions: negative logarithm of the Molar value; ref ChEMBL; cited from earlier work.
In the next experiment the test system is PDE10A. Further details: method as in ChEMBL. To be noted: negative logarithm of the Molar value; ref ChEMBL; cited from earlier work.

SLC2A9, sequence (Q9NRM0 51-540 limits assumed): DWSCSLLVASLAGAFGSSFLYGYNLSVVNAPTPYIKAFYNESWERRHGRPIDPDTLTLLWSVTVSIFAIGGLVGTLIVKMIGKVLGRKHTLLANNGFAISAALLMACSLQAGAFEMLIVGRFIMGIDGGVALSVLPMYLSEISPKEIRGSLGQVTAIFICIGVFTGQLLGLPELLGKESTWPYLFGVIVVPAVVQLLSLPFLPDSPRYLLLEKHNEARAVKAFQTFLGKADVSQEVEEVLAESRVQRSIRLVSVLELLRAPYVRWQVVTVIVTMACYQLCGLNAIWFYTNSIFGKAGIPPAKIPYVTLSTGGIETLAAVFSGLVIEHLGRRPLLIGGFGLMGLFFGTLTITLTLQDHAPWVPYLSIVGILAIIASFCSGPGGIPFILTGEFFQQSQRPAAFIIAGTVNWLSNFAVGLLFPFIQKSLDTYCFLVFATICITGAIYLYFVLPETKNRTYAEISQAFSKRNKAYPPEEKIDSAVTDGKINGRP

As for `CCc1oc2ccccc2c1C(=O)c1cc(Br)c(O)c(Br)c1` [Benzbromarone], the “effect in SLC2A9 membrane potential dye assay vs mock cells” value at SLC2A9 is listed as “unspecific SLC2A9-independent effect”.
Turning to `Nc1ncnc2c1nc(NCc1ccc(-c3ccccc3)cc1)n2[C@@H]1O[C@H](CO)[C@@H](O)[C@H]1O` [CNT2 inhibitor 1], the “selectivity for SLC28A2 in the TRACT assay” value in the experiment on SLC28A2 (CNT2) is given as “not selective”. In addition, the “inhibition of SLC29A1” value on ENT1 (SLC29A1) is on record as “also inhibited SLC29A1”.
Turning to `Cc1cccc(COc2ccccc2CN(CC[C@H](N)C(=O)O)Cc2ccccc2OCc2cccc(C)c2)c1` [V-9302], the “effect in SLC1A5 asparagine uptake assay” value on SLC1A5 was “no effect”.
For `O=C1CN(/N=C/c2ccc([N+](=O)[O-])o2)C(=O)N1` [nitrofurantoin], the S_SLCs in the experiment on all SLCs is 0. For the same compound, the S_other in experiment [1] is listed as 0. The “primary_SLC_act (MPC2)” value with MPC2 was 5.48.
In the case of `CCCOc1ccccc1-c1nc2nn[nH]c2c(=O)[nH]1` [zaprinast], the S_SLCs in the experiment on all SLCs stood at 0. This compound also had a S_other in [1] of 1.11. Also, the “primary_SLC_act (MPC2)” value in the experiment on MPC2 is 6.52. The “other_targets_act (PDE5A)” value in the experiment on PDE5A is given as 5.95. In the experiment with GPR35, the “other_targets_act (GPR35)” value is reported as 5.71. In the experiment with PDE1C, the “other_targets_act (PDE1C)” value is recorded as 4.89. For the same compound, the “other_targets_act (PDE10A)” value in the experiment on PDE10A is given as 4.66.
